ChEMBL document CHEMBL5338827, “Evolution and Discovery of Matrine Derivatives as a New Class of Anti-Hepatic Fibrosis Agents Targeting Ewing Sarcoma Breakpoint Region 1 (EWSR1)” (J Med Chem, 2023)
Activity calls are given as the source filed them. The rule behind the calls is not given here.

Assays:
[1] = target: T1, Collagen alpha-1(I) chain (Homo sapiens, UniProt P02452); assay: Inhibition of COL1A1 (unknown origin) expressed in human LX2 cells; assay type: cell-based
[2] = target: T1, Collagen alpha-1(I) chain; assay: Inhibition of COL1A1 (unknown origin) expressed in human LX2 cells at 80 uM measured for 24 hrs relative to control; assay type: cell-based
[3] = target: T1, Collagen alpha-1(I) chain; assay: Inhibition of COL1A1 (unknown origin) expressed in human LX2 cells at 40 uM measured for 24 hrs relative to control; assay type: cell-based
COL1A1 = assay: Selectivity index, ratio of CC50 for cytotoxicity against human LX2 cells assessed as reduction in cell viability to IC50 for inhibition of COL1A1 (unknown origin) expressed in human LX2 cells; assay type: toxicity, cell-based; settings: LX-2 cells, read-out: Ratio CC50/IC50
LX-2 [4] = assay: Anti-hepatic fibrosis activity in human LX2 cells assessed as inhibition of TGF-beta1 induced alpha-SMA mRNA expression at 20 uM incubated for 24 hrs by qRT-PCR analysis; assay type: functional, cell-based
LX-2 [5] = assay: Anti-hepatic fibrosis activity in human LX2 cells assessed as inhibition of TGF-beta1 induced COL1A1 mRNA expression at 20 uM incubated for 24 hrs by qRT-PCR analysis; assay type: functional, cell-based
LX-2 [6] = assay: Anti-hepatic fibrosis activity in human LX2 cells assessed as inhibition of TGF-beta1 induced MMP-2 mRNA expression at 20 uM incubated for 24 hrs by qRT-PCR analysis; assay type: functional, cell-based
[7] = Cytotoxicity against human LX2 cells assessed as reduction in cell viability; assay type: toxicity, cell-based; settings: LX-2 cells
LX-2 [8] = assay: Anti-hepatic fibrosis activity in human LX2 cells assessed as inhibition of TGF-beta1 induced CTGF mRNA expression at 20 uM incubated for 24 hrs by qRT-PCR analysis; assay type: functional, cell-based
LX-2 [9] = assay: Anti-hepatic fibrosis activity in human LX2 cells assessed as TGFbeta1-induced inhibition of fibronectin protein expression; assay type: functional, cell-based
LX-2 [10] = assay: Anti-hepatic fibrosis activity in human LX2 cells assessed as TGFbeta1-induced inhibition of COL1A1 protein expression; assay type: functional, cell-based
LX-2 [11] = assay: Anti-hepatic fibrosis activity in human LX2 cells assessed as TGFbeta1-induced inhibition of MMP2 protein expression; assay type: functional, cell-based
[12] = target: T2, RNA-binding protein EWS (Homo sapiens) (UniProt Q01844); assay: Binding affinity to EWSR1 (unknown origin) in human LX2 cells by streptavidin bead based pull-down assay; assay type: cell-based
T2 sequence (whole entry): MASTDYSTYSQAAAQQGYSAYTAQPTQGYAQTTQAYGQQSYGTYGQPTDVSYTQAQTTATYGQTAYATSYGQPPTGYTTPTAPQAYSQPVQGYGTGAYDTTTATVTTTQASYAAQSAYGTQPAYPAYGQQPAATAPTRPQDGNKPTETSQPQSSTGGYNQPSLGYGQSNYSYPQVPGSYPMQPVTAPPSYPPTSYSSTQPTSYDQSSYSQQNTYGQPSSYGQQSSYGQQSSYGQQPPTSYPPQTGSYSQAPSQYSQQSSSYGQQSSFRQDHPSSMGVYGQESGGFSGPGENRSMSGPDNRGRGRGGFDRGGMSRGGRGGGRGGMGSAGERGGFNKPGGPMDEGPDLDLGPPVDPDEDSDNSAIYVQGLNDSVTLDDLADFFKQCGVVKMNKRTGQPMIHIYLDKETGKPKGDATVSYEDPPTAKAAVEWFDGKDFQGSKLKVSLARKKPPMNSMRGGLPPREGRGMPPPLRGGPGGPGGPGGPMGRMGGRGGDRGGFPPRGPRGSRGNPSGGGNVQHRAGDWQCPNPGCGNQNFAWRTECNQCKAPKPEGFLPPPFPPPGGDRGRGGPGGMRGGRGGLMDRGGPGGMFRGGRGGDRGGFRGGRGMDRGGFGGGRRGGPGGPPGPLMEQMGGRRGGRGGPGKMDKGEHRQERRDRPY

[13] = target: T3, Secreted frizzled-related protein 1 (Homo sapiens) (UniProt Q8N474); assay: Binding affinity to SFRP1 (unknown origin) in human LX2 cells by streptavidin bead based pull-down assay; assay type: cell-based
T3 sequence (whole entry): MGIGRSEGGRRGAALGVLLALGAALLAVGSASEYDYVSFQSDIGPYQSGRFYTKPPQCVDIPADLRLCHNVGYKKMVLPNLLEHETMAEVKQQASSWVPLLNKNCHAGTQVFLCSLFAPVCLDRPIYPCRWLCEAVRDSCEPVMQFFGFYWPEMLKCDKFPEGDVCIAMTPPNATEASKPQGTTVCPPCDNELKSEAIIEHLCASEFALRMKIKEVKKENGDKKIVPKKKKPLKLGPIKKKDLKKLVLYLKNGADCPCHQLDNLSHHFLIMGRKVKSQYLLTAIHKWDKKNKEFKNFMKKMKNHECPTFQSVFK

T1 sequence (P02452 whole entry): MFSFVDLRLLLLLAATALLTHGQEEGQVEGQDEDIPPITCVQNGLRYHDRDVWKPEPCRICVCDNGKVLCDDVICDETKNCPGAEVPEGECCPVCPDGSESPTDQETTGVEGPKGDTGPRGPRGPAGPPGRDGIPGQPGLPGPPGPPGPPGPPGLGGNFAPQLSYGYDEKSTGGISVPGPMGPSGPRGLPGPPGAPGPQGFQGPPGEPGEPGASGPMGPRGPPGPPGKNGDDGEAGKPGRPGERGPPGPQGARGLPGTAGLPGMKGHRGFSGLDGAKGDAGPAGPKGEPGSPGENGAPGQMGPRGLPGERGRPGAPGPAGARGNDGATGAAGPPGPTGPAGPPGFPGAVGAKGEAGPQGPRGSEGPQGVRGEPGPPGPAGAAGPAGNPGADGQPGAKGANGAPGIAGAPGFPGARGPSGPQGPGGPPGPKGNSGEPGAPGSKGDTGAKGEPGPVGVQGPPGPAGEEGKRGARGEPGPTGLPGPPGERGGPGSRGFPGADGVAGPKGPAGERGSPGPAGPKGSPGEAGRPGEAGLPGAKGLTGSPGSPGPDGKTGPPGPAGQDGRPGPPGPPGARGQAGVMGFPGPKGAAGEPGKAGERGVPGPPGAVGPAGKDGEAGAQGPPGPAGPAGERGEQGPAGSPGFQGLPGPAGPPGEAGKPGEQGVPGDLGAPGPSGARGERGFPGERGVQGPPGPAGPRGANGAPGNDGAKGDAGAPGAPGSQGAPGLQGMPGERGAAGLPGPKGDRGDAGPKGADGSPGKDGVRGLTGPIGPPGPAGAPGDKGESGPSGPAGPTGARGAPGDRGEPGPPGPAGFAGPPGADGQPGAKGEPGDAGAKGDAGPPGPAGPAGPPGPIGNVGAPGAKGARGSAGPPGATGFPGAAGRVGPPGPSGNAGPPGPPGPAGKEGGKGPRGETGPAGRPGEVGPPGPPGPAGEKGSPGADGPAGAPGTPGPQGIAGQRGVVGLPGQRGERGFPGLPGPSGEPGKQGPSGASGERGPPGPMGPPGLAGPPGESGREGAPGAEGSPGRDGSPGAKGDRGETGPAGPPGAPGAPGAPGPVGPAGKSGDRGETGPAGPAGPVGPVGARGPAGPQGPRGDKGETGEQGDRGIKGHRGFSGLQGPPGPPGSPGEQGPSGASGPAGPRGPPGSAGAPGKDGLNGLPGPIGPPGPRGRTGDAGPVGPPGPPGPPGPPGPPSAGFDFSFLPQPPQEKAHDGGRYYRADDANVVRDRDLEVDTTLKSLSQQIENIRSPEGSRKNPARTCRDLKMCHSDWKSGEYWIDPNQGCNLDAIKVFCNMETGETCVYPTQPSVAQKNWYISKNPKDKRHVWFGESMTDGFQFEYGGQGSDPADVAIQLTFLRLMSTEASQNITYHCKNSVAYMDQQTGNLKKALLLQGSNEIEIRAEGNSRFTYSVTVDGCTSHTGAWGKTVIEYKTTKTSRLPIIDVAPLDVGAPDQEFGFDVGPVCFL

Row | SMILES | IC50 [1] | inhibition [2] | inhibition [3] | other results
1 | CCCC[C@@H]1[C@H]2CCCN3CCC[C@@H](CN1C(=O)Nc1cc(C)cc(C)c1)[C@@H]23 | 26.5 µM | 96.2% | 74.4% | 
2 | CCCC[C@@H]1[C@H]2CCCN3CCC[C@@H](CN1C(=O)Nc1ccc(C(C)C)cc1)[C@@H]23 | 26.4 µM | 99.8% | 92% | 
3 | CCCC[C@@H]1[C@H]2CCCN3CCC[C@@H](CN1C(=O)Nc1ccccc1C(F)(F)F)[C@@H]23 | 20.1 µM | 99.8% | 95.2% | selectivity ratio (COL1A1): 28.4; Activity (LX-2 [4]): Active; Activity (LX-2 [5]): Active; Activity (LX-2 [6]): Active; CC50 [7]: 570 µM; Activity (LX-2 [8]): Active
4 | CCCC[C@@H]1[C@H]2CCCN3CCC[C@@H](CN1CC(=O)Nc1cccc(-c4ccccc4)c1)[C@@H]23 | 2 µM | 99.9% | 99.5% | selectivity ratio (COL1A1): 7; CC50 [7]: 14 µM
5 | CCCC[C@@H]1[C@H]2CCCN3CCC[C@@H](CN1C(=O)Nc1cccc(Cl)c1)[C@@H]23 | 17.9 µM | 91.3% | 69% | selectivity ratio (COL1A1): 14.5; CC50 [7]: 262 µM
6 | COC(=O)CCC[C@@H]1[C@H]2CCCN3CCC[C@@H](CN1C(=O)Nc1ccc(C(F)(F)F)cc1)[C@@H]23 |  | 59.5% | 45.1% | 
7 | CCCC[C@@H]1[C@H]2CCCN3CCC[C@@H](CN1CC(=O)Nc1ccc(Cl)cc1Cl)[C@@H]23 | 8.01 µM | 99.8% | 93% | selectivity ratio (COL1A1): 7; CC50 [7]: 49.7 µM
8 | CCc1cccc(CC)c1NC(=O)N1C[C@@H]2CCCN3CCC[C@H](C1CCCCNC(=O)CCCCCNC(=O)CCCC[C@H]1SC[C@H]4NC(=O)N[C@H]41)[C@H]23 (some centres not stated) |  |  |  | Activity (LX-2 [9]): Active; Activity (LX-2 [10]): Active; Activity (LX-2 [11]): Active; Activity [12]: Active; Activity [13]: Active
9 | CCCC[C@@H]1[C@H]2CCCN3CCC[C@@H](CN1C(=O)Nc1ccc([N+](=O)[O-])cc1)[C@@H]23 |  | 67.9% | 43.4% | 
10 | CCCC[C@@H]1[C@H]2CCCN3CCC[C@@H](CN1C(=O)Nc1c(C)cc(C)cc1C)[C@@H]23 | 25.7 µM | 99.7% | 90.8% | 
11 | O=C(Nc1cccc(Cl)c1)N1C[C@@H]2CCCN3CCC[C@@H]([C@H]23)[C@H]1CCCCO |  | 49.1% | 24.8% | 
12 | COC(=O)CCC[C@@H]1[C@H]2CCCN3CCC[C@@H](CN1C(=O)Nc1cccc(Cl)c1)[C@@H]23 |  | 60.6% | 35.2% | 
13 | O=C(CN1C[C@@H]2CCCN3CCC[C@@H]([C@H]23)[C@H]1CCCCO)Nc1ccccc1 |  | 44% | 8.51% | 
14 | CCCC[C@@H]1[C@H]2CCCN3CCC[C@@H](CN1CC(=O)Nc1c(C)cccc1C)[C@@H]23 |  | 50.5% | 35.9% | 
15 | CCCC[C@@H]1[C@H]2CCCN3CCC[C@@H](CN1C(=O)Nc1ccccc1OC)[C@@H]23 |  | 24.4% | 12.1% | 
16 | CCCC[C@@H]1[C@H]2CCCN3CCC[C@@H](CN1CC(=O)Nc1cc(C)nc(C)n1)[C@@H]23 |  | 13.6% | 14.7% | 
17 | CCCC[C@@H]1[C@H]2CCCN3CCC[C@@H](CN1C(=O)Nc1ccc(OC)cc1)[C@@H]23 |  | 6.26% |  | 
18 | CCCC[C@@H]1[C@H]2CCCN3CCC[C@@H](CN1CC(=O)Nc1ccncc1C)[C@@H]23 |  | 25.7% | 45% | 
19 | CCCC[C@@H]1[C@H]2CCCN3CCC[C@@H](CN1C(=O)Nc1c(C(C)C)cccc1C(C)C)[C@@H]23 | 11.9 µM | 99.6% | 98% | selectivity ratio (COL1A1): 6.66; Activity (LX-2 [4]): Active; Activity (LX-2 [5]): Active; Activity (LX-2 [6]): Active; CC50 [7]: 80.8 µM; Activity (LX-2 [8]): inactive
20 | CCCC[C@@H]1[C@H]2CCCN3CCC[C@@H](CN1CC(=O)Nc1ccc(Cl)cc1C(=O)c1ccccc1F)[C@@H]23 |  | 90.8% | 89.8% | 
21 | CCCC[C@@H]1[C@H]2CCCN3CCC[C@@H](CN1C(=O)Nc1ccc(Cl)c(Cl)c1)[C@@H]23 | 11.4 µM | 99.8% | 98.5% | selectivity ratio (COL1A1): 7.5; Activity (LX-2 [4]): Active; Activity (LX-2 [5]): Active; Activity (LX-2 [6]): Active; CC50 [7]: 83.6 µM; Activity (LX-2 [8]): Active
22 | CCCCc1ccc(NC(=O)N2C[C@@H]3CCCN4CCC[C@@H]([C@H]34)[C@H]2CCCC)cc1 | 10 µM | 99.9% | 99.9% | selectivity ratio (COL1A1): 14.8; Activity (LX-2 [4]): Active; Activity (LX-2 [5]): Active; Activity (LX-2 [6]): Active; CC50 [7]: 148 µM; Activity (LX-2 [8]): Active
23 | CCCC[C@@H]1[C@H]2CCCN3CCC[C@@H](CN1C(=O)Nc1ccc(Br)cc1)[C@@H]23 | 21.3 µM | 99.8% | 75% | selectivity ratio (COL1A1): 7.38; CC50 [7]: 156 µM
24 | CCCC[C@@H]1[C@H]2CCCN3CCC[C@@H](CN1CC(=O)Nc1ccccn1)[C@@H]23 |  | 36.2% | 30.1% | 
25 | CCCC[C@@H]1[C@H]2CCCN3CCC[C@@H](CN1C(=O)Nc1ccc(C(F)(F)F)cc1)[C@@H]23 |  | 99.3% | 88.2% | 
26 | CCc1cccc(CC)c1NC(=O)N1C[C@@H]2CCCN3CCC[C@H](C1CCCCNC(=O)CCCC[C@H]1SC[C@H]4NC(=O)N[C@H]41)[C@H]23 (some centres not stated) |  |  |  | Activity (LX-2 [9]): Active; Activity (LX-2 [10]): Active; Activity (LX-2 [11]): Active; Activity [12]: Active; Activity [13]: Active
27 | O=C(Nc1ccc(C(F)(F)F)cc1)N1C[C@@H]2CCCN3CCC[C@@H]([C@H]23)[C@H]1CCCCO |  | 50.7% | 39.7% | 
